14 molecules from PubChem BioAssay AID624333 (NMMLSC, 2012) can be followed below.

The test system of the assay is anti-Dsg3 scFv antibody binding to human desmoglein-3. Put plainly: blockers of Dsg3 recognition by pemphigus scFv, confirmation, orthogonal assay for pemphigus antibody inhibitor project, biochemical, ELISA (AID 624333). Particulars: OD, at 200 µM, hits give high values.

Activity calls are given as the source filed them.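 Rule for the calls: active = inhibition of binding above 0%; inactive = the rest.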

For `Cc1c(C(=O)Nc2ccc(OCc3ccccc3)cc2)cccc1[N+](=O)[O-]`, the inhibition of binding was -33% (inactive). To `CC(=O)Nc1ccc(-c2cc(-c3ccccc3)nc(-c3ccccc3)n2)cc1` belongs 5%; to `COc1ccc(OC)c(NC(=O)c2nc(-c3ccccc3)oc2C)c1`, -2% (inactive); to `Cc1cc(SCC(=O)Nc2ccc3[nH]c(=O)[nH]c3c2)nc2ccccc12`, 8%. To `CSc1ccccc1OCc1cc(C(=O)NCCC2=CCCCC2)no1` belongs -14% (inactive); to `CCc1ccc(OCC(=O)Nc2ccc(N3CCN(C(=O)c4ccccc4)CC3)cc2)cc1`, -5% (inactive); to `CCOc1ccccc1NCc1cc(=O)oc2cc(C)c(O)cc12`, -4% (inactive). In the case of `NS(=O)(=O)c1ccc(NC(=O)c2cc(-c3cccs3)nc3ccccc23)cc1` it was -18% (inactive).

Take `COc1ccccc1NC(=O)Cn1nnc(-c2ccccc2NC(=O)c2cc3ccccc3oc2=O)n1`: the inhibition of binding was -32% (inactive). In the case of `COc1cc(OC)cc(N(C(=O)C2COc3ccccc3O2)C(C(=O)NC2CCCCC2)c2ccc(O)cc2)c1` (centres undefined) it was -3% (inactive); in that of `CC(C)OC(=O)CSc1nc2c(cc1C#N)CCCCC2`, -2% (inactive).

As for `OCc1cn(-c2ccccc2)nc1-c1ccc(-c2nn(-c3ccccc3)cc2CO)cc1`, the inhibition of binding is -14% (inactive). For `Cc1ccc(C(C)C)c(OCC(=O)Nc2ccc(N3CCN(S(C)(=O)=O)CC3)cc2)c1`, the inhibition of binding is -19% (inactive). To `Cn1c(SCC(=O)NC2CCCCC2)nnc1-c1cc2cc(Cl)ccc2o1` belongs 0% (inactive).
